Experimental findings from PubChem BioAssay (NCI) are described below.

What all share (assay): NCI anticancer screen, dose series, 48 h
For experiment [1], the system named is MALME-3M melanoma.
In experiment [2] the test system is SF-539 CNS.
Experiment [3] relates to A549 NSCLC.
Experiment [4] concerns HT29 colon.
The test system of experiment [5] is SK-OV-3 ovarian.
Experiment [6] has as its system HOP-92 NSCLC.
For experiment [7], the system named is SR leukemia.
The subject of experiment [8] is UO-31 renal.
Experiment [9] has as its system LOX IMVI melanoma.
The subject of experiment [10] is OVCAR-5 ovarian.

“And” between values parts separate entries of the source, which are not always exact repeats. Identical values can stand only once.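 The compound was tested at five concentrations on cells cultured in 96-well plates, with a 48-hour exposure period. GI50 marks 50% less growth. Definition used: TGI = concentration required for complete inhibition of growth.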

For `COc1cc(/C=C2\Oc3cc(OCCCN4CCCC4)ccc3C2=O)cc(OC)c1`, the GI50 was 1.77 µM in experiment [1]; 1.66 µM in experiment [2]; 3.44 µM in [3]; 2.8 µM in experiment [4]; 12.9 µM in [5]; 3.2 µM in experiment [6]. Also, the GI50 in experiment [7] was 1.82 µM; in experiment [8], 4.76 µM; in [9], 1.6 µM; in experiment [10], 12.5 µM. Besides, the TGI amounted to 4.26 µM in experiment [1]; 3.12 µM in experiment [2]; 14.8 µM in experiment [3]; 8.69 µM in experiment [4]; 26.1 µM in [5]; 16.8 µM in experiment [6]. Also, the TGI in experiment [7] turned out to be 5.04 µM; in [8], 18 µM; in experiment [9] it was 3.05 µM; in [10], 25.4 µM.

Consider `CCCCCCCCCCC/C=C\C[C@H](O)C/C=C1/C(=O)C=C[C@@H]1C/C=C\CCCC(=O)OC`, for which the GI50 in experiment [1] was 0.803 µM; in experiment [2] it was 1.02 µM; in [3], 5.96 µM; in [4], 1.03 µM; in experiment [5], 5.78 µM; in experiment [6], 5.43 µM. In addition, the GI50 is 0.72 µM in experiment [7], 1.1 µM in [8], 0.536 µM in experiment [9] and 1.7 µM in experiment [10]. Moreover, the TGI in experiment [1] was 2.41 µM; in experiment [2] it was 3.71 µM; in experiment [3], 33.3 µM; in experiment [4], 2.85 µM; in experiment [5], 21.5 µM; in [6], 11.9 µM. In addition, the TGI in experiment [7] stood at 3.97 µM; in [8] it was 4.67 µM; in experiment [9], 1.05 µM; in experiment [10], 8.58 µM.

Regarding `O=C(O)C1C2C=CC(C2)C1C(=O)O` (centres undefined), the GI50 in experiment [1], in experiment [2], in experiment [3], in experiment [4], in [5] and in experiment [6] was greater than 100 µM each time. In addition, the GI50 in experiment [7], in [8], in experiment [9] and in [10] was greater than 100 µM in each case. The TGI in experiment [1], in experiment [2], in [3], in experiment [4], in experiment [5] and in experiment [6] was greater than 100 µM each time. In addition, the TGI in [7], in experiment [8], in experiment [9] and in [10] was greater than 100 µM each time.

Consider `COc1cccc(NC(=O)C(C)(C)C)c1SSc1c(NC(=O)C(C)(C)C)cccc1OC`, for which the TGI in experiment [1] was greater than 63.4 µM; in experiment [2], 45.5 µM; in experiment [3] it was greater than 100 µM; in experiment [4] it was greater than 65.1 µM; in experiment [5], greater than 100 µM; in experiment [6] it was greater than 86 µM. Further, the TGI in [7] was 55.3 µM; in [8], greater than 88.9 µM; in experiment [9], 30.4 µM; in [10] it was 53.2 µM.

With `O=S1(=O)NC2CCC3NS(=O)(=O)NC4CCC(N1)N4S(=O)(=O)N23` (centres undefined), the TGI in experiment [1], in experiment [2], in experiment [3], in experiment [4], in experiment [5] and in experiment [6] was greater than 100 µM each time. The TGI in [7], in experiment [8], in experiment [9] and in [10] was greater than 100 µM in each case.

For `c1cc(CSSCc2ccncc2)ccn1`, the TGI in experiment [1] was greater than 100 µM; in experiment [2], 50.2 µM; in [3], greater than 100 µM; in experiment [4], greater than 100 µM; in experiment [5], greater than 100 µM; in experiment [6], greater than 100 µM. In addition, the TGI is 30.3 µM in experiment [7], greater than 100 µM in experiment [8], greater than 100 µM in [9] and greater than 100 µM in [10].

Turning to `COC(C(=O)C(O)C(C)O)C1Cc2cc3cc(OC4CC(OC5CC(O)C(O)C(C)O5)C(O)C(C)O4)c(C)c(O)c3c(O)c2C(=O)C1OC1CC(OC2CC(O)C(OC3CC(C)(O)C(O)C(C)O3)C(C)O2)C(O)C(C)O1` (centres undefined), the GI50 in [1] is 0.0112 mg/L and 0.000642 mg/L; in experiment [2], 0.0112 mg/L and 0.000474 mg/L; in [3] it was 0.0126 mg/L and 0.00127 mg/L; in experiment [4] it was 0.00284 mg/L; in experiment [5], 0.0163 mg/L and 0.0045 mg/L; in [6], 0.0112 mg/L and 0.00321 mg/L. For the same compound, the GI50 is 0.0112 mg/L and 1.91 mg/L in experiment [7]; 0.0725 mg/L and 0.00356 mg/L in [8]; 0.00217 mg/L in [9]; 0.013 mg/L and 0.0036 mg/L in experiment [10]. The TGI in experiment [4] is 2.03 mg/L; in experiment [6], 0.08 mg/L and 0.082 mg/L; in [7] it was 112 mg/L and > 150 mg/L; in experiment [9], 15 mg/L.

As to `CC(C)(CCN=C(N)Nc1ccccn1)c1ccc(C(F)(F)F)cc1`, the GI50 is 14.3 µM in experiment [1]; 15.3 µM in experiment [2]; 16.5 µM in experiment [3]; 10.4 µM in experiment [4]; 15.8 µM in experiment [5]; 13.3 µM in [6]. Further, the GI50 in experiment [7] was 15.1 µM; in [8], 10.7 µM; in experiment [9], 14.2 µM; in experiment [10], 15.8 µM. The TGI was found to be 29.6 µM in experiment [1]; 29.4 µM in experiment [2]; 31.6 µM in experiment [3]; 24 µM in experiment [4]; 30.8 µM in experiment [5]; 27.6 µM in [6]. In addition, the TGI worked out at 32.9 µM in experiment [7], 22.7 µM in experiment [8], 27.6 µM in [9] and 30.7 µM in experiment [10].

Consider `N#CC1(Nc2ccc(-c3ccc(NC4(C#N)CCCC4)cc3)cc2)CCCC1`, for which the TGI in experiment [1] is greater than 100 µM; in [2], 78.2 µM; in experiment [3], greater than 100 µM; in experiment [4], greater than 100 µM; in experiment [5], greater than 100 µM; in experiment [6], greater than 100 µM. In addition, the TGI in experiment [7], in [8], in experiment [9] and in experiment [10] was greater than 100 µM in each case.
